Patent publication US7994204B2, “Binding inhibitor of sphingosine-1-phosphate” (Taisho Pharmaceutical Co., Ltd, priority 2006, dated 2011)

Molecular target: T1, human Edg-1 (S1P1) (Homo sapiens, UniProt P21453)
T1 construct: expressed in transfected cells; host or cells: HEK-293
Assay: S1P1 binding inhibition test (membrane, [33P]-S1P)
Conditions: compound 10 μM; [33P]-S1P 0.1 nM; human Edg-1 (S1P1) HEK-293 membrane fraction; read-out: Binding test (membrane) % inhibition (10 μM)
Description: The membrane fraction was obtained by treating the cells with a solubilizing buffer (1 mM Tris/HCl, pH 7.2) for 10 minutes on ice, centrifuging at 1000×g for 5 minutes to remove insoluble fractions, and then centrifuging at 40000×g for 30 minutes at 4° C. The resulting membrane fraction was dissolved in a binding buffer (20 mM Tris-HCl, pH 7.4, 100 mM NaCl, 15 mM NaF, 2 mM deoxypyridoxine, 4 mg/mL fatty acid-free BSA), and then [^33P]-S1P (manufactured by ARC, final concentration 0.1 nM) and a DMSO solution (final concentration of the compound 10^−5 M, final concentration of DMSO 0.1%) of the test compound were added. Thereafter, the mixture was stirred and then treated for one hour at 30° C. Using a harvester, the membrane fraction was harvested onto unifilter-96 GF/C filter (manufactured by Perkin Elmer), washing was carried out four times with the binding buffer, and the filter was dried. Twenty five μL Microscint 0 (manufactured by Perkin Elmer) was added, and radioactivity was measured using Top Count NXT (manufactured by Packard) to calculate the amount (A) of [^33P]-S1P bound to the membrane fraction at the time when the compound was added.
The same procedure was carried out in the absence of the test compound, and the amount (B) of [^33P]-S1P bound was calculated. Further, the same procedure was carried out in the absence of the test compound by use of HEK-293 cells to which no Edg-1 (S1P1) gene was introduced, and the background amount (C) of [^33P]-S1P bound was calculated.
Inhibition rate (%)=[1−(A−C)/(B−C)]×100.
Moreover, the concentration required for a test compound to produce 50% inhibition of the binding caused in the absence of the test compound was also calculated (IC50). The above membrane system binding test was performed in the presence of a test compound at various concentrations to calculate the inhibition rate of Edg-1(S1P1) binding at each concentration according to the above equation, followed by calculating an IC50 value for each compound with data analysis software, Origin (Lightstone Corp., Japan).

T1 sequence (P21453 whole entry): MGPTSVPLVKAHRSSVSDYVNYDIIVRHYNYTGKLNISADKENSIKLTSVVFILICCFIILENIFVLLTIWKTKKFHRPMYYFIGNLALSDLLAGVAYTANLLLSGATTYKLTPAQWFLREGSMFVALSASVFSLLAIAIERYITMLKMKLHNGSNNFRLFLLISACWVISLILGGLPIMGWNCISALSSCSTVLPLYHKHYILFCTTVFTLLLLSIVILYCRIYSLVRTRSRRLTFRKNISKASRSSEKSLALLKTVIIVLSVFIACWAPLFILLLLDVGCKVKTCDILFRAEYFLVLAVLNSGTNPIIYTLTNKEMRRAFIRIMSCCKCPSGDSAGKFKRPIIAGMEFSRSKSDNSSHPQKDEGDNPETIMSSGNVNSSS

Structure (SMILES)	inhibition at 10 µM [%]
CCn1c(C(C)NS(=O)(=O)c2ccc(F)c(F)c2F)cnc1Oc1ccc(C)cc1 (stereo not shown) [Compound 90]	78.6
CCn1c(C(C)NS(=O)(=O)c2cc(F)c(F)cc2Cl)cnc1Oc1ccc(C)cc1 (stereo not shown) [Compound 93]	75.2
CCn1c(C(C)NS(=O)(=O)c2ccc(F)c(F)c2)cnc1Oc1ccc(C)cc1 (stereo not shown) [Compound 94]	86.5
CCn1c(C(C)NS(=O)(=O)c2ccc(Br)cc2F)cnc1Oc1ccc(C)cc1 (stereo not shown) [Compound 95]	80.1
CCn1c(C(C)NS(=O)(=O)c2cc(F)c(Cl)cc2F)cnc1Oc1ccc(C)cc1 (stereo not shown) [Compound 96]	80.4
CCn1c(C(C)NS(=O)(=O)c2cc(C)c(Cl)cc2Cl)cnc1Oc1ccc(C)cc1 (stereo not shown) [Compound 101]	107
CCn1c(C(C)NS(=O)(=O)c2c(F)c(Br)cc(F)c2Br)cnc1Oc1ccc(C)cc1 (stereo not shown) [Compound 102]	78.2
CCn1c(C(C)NS(=O)(=O)c2c(F)cccc2F)cnc1Oc1ccc(C)cc1 (stereo not shown) [Compound 103]	53
CCn1c(C(C)NS(=O)(=O)c2cc(C(F)(F)F)ccc2Cl)cnc1Oc1ccc(C)cc1 (stereo not shown) [Compound 104]	70.9
CCn1c(C(C)NS(=O)(=O)c2cccc(F)c2)cnc1Oc1ccc(C)cc1 (stereo not shown) [Compound 105]	84.2
CCn1c(C(C)NS(=O)(=O)c2cc(Cl)ccc2OC)cnc1Oc1ccc(C)cc1 (stereo not shown) [Compound 107]	79.8
CCn1c(C(C)NS(=O)(=O)c2c(C)cc(Cl)cc2Cl)cnc1Oc1ccc(C)cc1 (stereo not shown) [Compound 108]	81.3
CCn1c(C(C)NS(=O)(=O)c2cc(F)c(F)cc2F)cnc1Oc1ccc(C)cc1 (stereo not shown) [Compound 109]	81.3
CCn1c(C(C)NS(=O)(=O)c2cc(Br)ccc2Br)cnc1Oc1ccc(C)cc1 (stereo not shown) [Compound 110]	86.4
CCn1c(C(C)NS(=O)(=O)c2ccc(-c3ccno3)s2)cnc1Oc1ccc(C)cc1 (stereo not shown) [Compound 111]	59.6
CCn1c(C(C)NS(=O)(=O)c2ccc(Br)cc2Br)cnc1Oc1ccc(C)cc1 (stereo not shown) [Compound 113]	77.8
CCn1c(C(C)NS(=O)(=O)c2ccc(F)c(C#N)c2)cnc1Oc1ccc(C)cc1 (stereo not shown) [Compound 114]	96.8
CCn1c(C(C)NS(=O)(=O)c2cc(C)cc(C)c2)cnc1Oc1ccc(C)cc1 (stereo not shown) [Compound 115]	92.9
CCn1c(C(C)NS(=O)(=O)c2ccc(OC(F)F)cc2)cnc1Oc1ccc(C)cc1 (stereo not shown) [Compound 116]	78.2
CCn1c(C(C)NS(=O)(=O)c2cccc(OC(F)F)c2)cnc1Oc1ccc(C)cc1 (stereo not shown) [Compound 117]	87.3
CCn1c(C(C)NS(=O)(=O)c2c(F)cc(F)cc2Br)cnc1Oc1ccc(C)cc1 (stereo not shown) [Compound 118]	62.5
CCn1c(C(C)NS(=O)(=O)c2cc(F)cc(F)c2)cnc1Oc1ccc(C)cc1 (stereo not shown) [Compound 119]	91.1
CCn1c(C(C)NS(=O)(=O)c2ccc(Cl)cc2F)cnc1Oc1ccc(C)cc1 (stereo not shown) [Compound 120]	81.2
CCn1c(C(C)NS(=O)(=O)c2cc(F)c(F)c(F)c2)cnc1Oc1ccc(C)cc1 (stereo not shown) [Compound 121]	101
CCn1c(C(C)NS(=O)(=O)c2ccc(Br)c(C)c2)cnc1Oc1ccc(C)cc1 (stereo not shown) [Compound 122]	100
CCn1c(C(C)NS(=O)(=O)c2ccc(F)cc2Br)cnc1Oc1ccc(C)cc1 (stereo not shown) [Compound 123]	70.6

Further lines, results first:

inhibition at 10 µM [%]	Structure (SMILES)
65.6	CCn1c(C(C)NS(=O)(=O)c2ccc(C(F)(F)F)cc2Br)cnc1Oc1ccc(C)cc1 (stereo not shown) [Compound 124]
99.3	CCn1c(C(C)NS(=O)(=O)c2ccc(C)c(F)c2)cnc1Oc1ccc(C)cc1 (stereo not shown) [Compound 126]
86.4	CCn1c(C(C)NS(=O)(=O)c2ccc(F)cc2C)cnc1Oc1ccc(C)cc1 (stereo not shown) [Compound 127]
65.6	CCn1c(C(C)NS(=O)(=O)c2cc(Cl)ccc2F)cnc1Oc1ccc(C)cc1 (stereo not shown) [Compound 128]
102	CCn1c(C(C)NS(=O)(=O)c2ccc(Br)c(F)c2)cnc1Oc1ccc(C)cc1 (stereo not shown) [Compound 129]
77.5	CCn1c(C(C)NS(=O)(=O)c2ccc(Br)cc2Cl)cnc1Oc1ccc(C)cc1 (stereo not shown) [Compound 130]
104	CCn1c(C(C)NS(=O)(=O)c2ccc(C)c(C)c2)cnc1Oc1ccc(C)cc1 (stereo not shown) [Compound 133]
81	CCn1c(C(C)NS(=O)(=O)c2cc(C)ccc2F)cnc1Oc1ccc(C)cc1 (stereo not shown) [Compound 134]
83.4	CCn1c(C(C)NS(=O)(=O)c2cccc(Cl)c2F)cnc1Oc1ccc(C)cc1 (stereo not shown) [Compound 135]
58.8	CCn1c(C(C)NS(=O)(=O)c2cc(C)oc2C(F)(F)F)cnc1Oc1ccc(C)cc1 (stereo not shown) [Compound 143]
94.1	CCn1c(C(C)NS(=O)(=O)c2ccc3c(c2)OCCO3)cnc1Oc1ccc(C)cc1 (stereo not shown) [Compound 144]
57.8	CCn1c(C(C)NS(=O)(=O)c2cccc3nsnc23)cnc1Oc1ccc(C)cc1 (stereo not shown) [Compound 146]
73.2	CCn1c(C(C)NS(=O)(=O)c2ccc3nsnc3c2)cnc1Oc1ccc(C)cc1 (stereo not shown) [Compound 147]
57	CCn1c(C(C)NS(=O)(=O)c2ccc(C(F)(F)F)cc2Cl)cnc1Oc1ccc(C)cc1 (stereo not shown) [Compound 158]
71.2	CCn1c(C(C)NS(=O)(=O)c2cccc(C(C)=O)c2)cnc1Oc1ccc(C)cc1 (stereo not shown) [Compound 161]
70.2	CCn1c(C(C)NS(=O)(=O)c2ccc(F)c3ccccc23)cnc1Oc1ccc(C)cc1 (stereo not shown) [Compound 162]
80.7	CCc1ccc(OC)c(S(=O)(=O)NC(C)c2cnc(Oc3ccc(C)cc3)n2CC)c1 (stereo not shown) [Compound 166]
62	CCn1c(C(C)NS(=O)(=O)c2cccc3cnccc23)cnc1Oc1ccc(C)cc1 (stereo not shown) [Compound 169]
75.9	CCn1c(C(C)NS(=O)(=O)c2ccc(Br)c(C(F)(F)F)c2)cnc1Oc1ccc(C)cc1 (stereo not shown) [Compound 172]
77.7	CCn1c(C(C)NS(=O)(=O)c2cc3ccccc3s2)cnc1Oc1ccc(C)cc1 (stereo not shown) [Compound 177]
64.2	CCn1c(C(C)NS(=O)(=O)c2csc3ccccc23)cnc1Oc1ccc(C)cc1 (stereo not shown) [Compound 178]
95.9	CCn1c(Oc2ccc(C)cc2)cnc1C(C)NS(=O)(=O)c1ccc(Cl)c(Cl)c1 (stereo not shown) [Compound 179, 3,4-Dichloro-N-[1-(1-ethyl-5-(4-methylphenoxy)-1H-imidazol-2-yl)-ethyl]-benzenesulfonamide]
95.3	CCn1c(C(C)NS(=O)(=O)c2ccc(Cl)c(Cl)c2)cnc1Oc1cccc(N2CCN(C)CC2)c1 (stereo not shown) [Compound 184, 3,4-Dichloro-N-(1-{3-ethyl-2-[3-(4-methylpiperazin-1-yl)-phenoxy]-3H-imidazol-4-yl}-ethyl)-benzenesulfonamide]
97.2	CCn1c(C(C)NS(=O)(=O)c2ccc(Cl)c(Cl)c2)cnc1Oc1ccc(Cl)cc1 (stereo not shown) [Compound 189, 3,4-Dichloro-N-{1-[3-ethyl-2-(4-chlorophenoxy)-3H-imidazol-4-yl]-ethyl}-benzenesulfonamide]
100	CCC(NS(=O)(=O)c1ccc(Cl)c(Cl)c1)c1cnc(Oc2ccc(F)cc2)n1CC (stereo not shown) [Compound 191, 3,4-Dichloro-N-{1-[3-ethyl-2-(4-fluorophenoxy)-3H-imidazol-4-yl]-propyl}-benzenesulfonamide]
98.1	CCn1c(C(C)NS(=O)(=O)c2ccc(Cl)c(Cl)c2)cnc1Oc1cccc(NS(C)(=O)=O)c1 (stereo not shown) [Compound 234, 3,4-Dichloro-N-{1-[3-ethyl-2-(3-methanesulfonylaminophenoxy)-3H-imidazol-4-yl]-ethyl}-benzenesulfonamide]
82.6	CCn1c(C(C)NS(=O)(=O)c2ccc(Cl)c(Cl)c2)cnc1Sc1ccc(C)cc1 (stereo not shown) [Compound 241, 3,4-Dichloro-N-[1-(3-ethyl-2-p-tolylsulfanyl-3H-imidazol-4-yl)-ethyl]-benzenesulfonamide]
90.2	CCn1c(C(C)N(C)S(=O)(=O)c2ccc(Cl)c(Cl)c2)cnc1Oc1ccc(Cl)cc1 (stereo not shown) [Compound 248, 3,4-Dichloro-N-{1-[2-(4-chlorophenoxy)-3-ethyl-3H-imidazol-4-yl]-ethyl}-N-methyl-benzenesulfonamide]
100	CCn1c(C(C)NS(=O)(=O)c2ccc(Cl)c(Cl)c2)cnc1Oc1cccc(-n2cccc2)c1 (stereo not shown) [Compound 249, 3,4-Dichloro-N-{1-[3-ethyl-2-(3-pyrrol-1-yl-phenoxy)-3H-imidazol-4-yl]-ethyl}-benzenesulfonamide]

Same assay, conditions: membrane system binding test, various concentrations

IC50 [nM]	Structure (SMILES)
14.3	CCn1c(C(C)NS(=O)(=O)c2ccc(Cl)c(Cl)c2)cnc1Oc1cccc(N2CCN(C)CC2)c1 (stereo not shown) [Compound 184, 3,4-Dichloro-N-(1-{3-ethyl-2-[3-(4-methylpiperazin-1-yl)-phenoxy]-3H-imidazol-4-yl}-ethyl)-benzenesulfonamide]
≤ 70	CCn1c(C(C)NS(=O)(=O)c2ccc(Cl)c(Cl)c2)cnc1Oc1ccc(Cl)cc1 (stereo not shown) [Compound 189, 3,4-Dichloro-N-{1-[3-ethyl-2-(4-chlorophenoxy)-3H-imidazol-4-yl]-ethyl}-benzenesulfonamide]
≤ 35	CCn1c(C(C)NS(=O)(=O)c2ccc(Cl)c(Cl)c2)cnc1Oc1cccc(NS(C)(=O)=O)c1 (stereo not shown) [Compound 234, 3,4-Dichloro-N-{1-[3-ethyl-2-(3-methanesulfonylaminophenoxy)-3H-imidazol-4-yl]-ethyl}-benzenesulfonamide]
